Test systems include MOLT-4 leukemia; U251 CNS; SF-295 CNS; OVCAR-3 ovarian; SNB-75 CNS; UO-31 renal; 786-0 renal; MDA-MB-231 breast; SNB-19 CNS; HCT-116 colon; CAKI-1 renal; RXF 393 renal; MDA-MB-435; SW-620 colon; PC-3 prostate; K-562 leukemia; HT29 colon; SR leukemia.
Common to all, as to assay: inhibition of tumour cell growth, NCI panel, 48 h

SMILES strings stand for the structures.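 The compound was tested at five concentrations on cells cultured in 96-well plates, with a 48-hour exposure period. TGI is the concentration that stops growth completely.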

Regarding `O=C(/C=C\Nc1ccccc1O)C(Cl)(Cl)Cl`, the TGI is over 100 µM in the assay with MOLT-4 leukemia; 81.8 µM in the assay with U251 CNS; 35.2 µM with SF-295 CNS; 43.1 µM with OVCAR-3 ovarian; over 100 µM in the assay with SNB-75 CNS; 76.5 µM with UO-31 renal. Moreover, the TGI in the assay on 786-0 renal is 64.7 µM; with MDA-MB-231 breast, over 100 µM; in the assay with SNB-19 CNS, over 100 µM; in the assay with HCT-116 colon, over 100 µM; in the assay with CAKI-1 renal it was over 100 µM; in the assay on RXF 393 renal, over 100 µM. The TGI with MDA-MB-435 was 43.8 µM; in the assay with SW-620 colon, over 100 µM; in the assay on PC-3 prostate, over 100 µM; with K-562 leukemia, over 100 µM; with HT29 colon, over 100 µM.
On to `CC(NC(=O)C(N)CC(=O)O)NC(=O)N1CCOCC1` (stereo not drawn), for which the TGI with MOLT-4 leukemia, in the assay on U251 CNS, with SF-295 CNS, with OVCAR-3 ovarian, with SNB-75 CNS and with UO-31 renal was over 100 µM throughout. Besides, the TGI in the assay on 786-0 renal, in the assay with MDA-MB-231 breast, in the assay with SNB-19 CNS, in the assay with HCT-116 colon, with CAKI-1 renal and in the assay with RXF 393 renal was over 100 µM throughout. Also, the TGI in the assay on MDA-MB-435, in the assay with SW-620 colon, in the assay on PC-3 prostate, with K-562 leukemia and in the assay on HT29 colon was over 100 µM each time.
As to `Cc1ccc2cccc3c2c1CC1(C3=O)S(=O)(=O)OCCOS1(=O)=O`, the TGI in the assay with MOLT-4 leukemia, with U251 CNS, with SF-295 CNS, with OVCAR-3 ovarian, with SNB-75 CNS and in the assay on UO-31 renal was over 100 µM each time. For the same compound, the TGI with 786-0 renal, in the assay with MDA-MB-231 breast, in the assay on SNB-19 CNS, in the assay on HCT-116 colon, in the assay on CAKI-1 renal and with RXF 393 renal was over 100 µM in each case. The TGI in the assay with MDA-MB-435, with SW-620 colon, in the assay with PC-3 prostate, with K-562 leukemia and in the assay on HT29 colon was over 100 µM throughout.
Take `CCc1n[nH]c(=O)n1NC(=O)c1ccccc1C(=O)O`: the TGI with MOLT-4 leukemia, with U251 CNS, in the assay with SF-295 CNS, in the assay on OVCAR-3 ovarian, in the assay on SNB-75 CNS and with UO-31 renal was over 100 µM each time. Besides, the TGI in the assay on 786-0 renal, in the assay on MDA-MB-231 breast, in the assay on SNB-19 CNS, in the assay on HCT-116 colon, in the assay on RXF 393 renal and with MDA-MB-435 was over 100 µM throughout. The TGI in the assay with SR leukemia, in the assay on SW-620 colon, in the assay on PC-3 prostate, in the assay on K-562 leukemia and in the assay on HT29 colon was over 100 µM in each case.
For the compound `N#CC(N=Nc1ccccc1)c1nc2ccccc2o1` (stereo not drawn), the TGI in the assay on MOLT-4 leukemia was over 100 µM; with U251 CNS it was 59.5 µM; in the assay on SF-295 CNS, 35.5 µM; with OVCAR-3 ovarian, 92.7 µM; in the assay on UO-31 renal it was over 100 µM; in the assay on 786-0 renal, 45.5 µM. Further, the TGI in the assay on MDA-MB-231 breast was 57.4 µM; in the assay on SNB-19 CNS it was over 100 µM; in the assay on HCT-116 colon it was 57.5 µM; with CAKI-1 renal, over 100 µM; with RXF 393 renal it was 61.4 µM; in the assay with MDA-MB-435, over 100 µM. For the same compound, the TGI with SR leukemia, with PC-3 prostate, with K-562 leukemia and in the assay with HT29 colon was over 100 µM each time.
For `O=c1c(O)c(-c2cc(O)c(O)cc2O)oc2cc(O)c(C3OC(CO)C(O)C(O)C3O)c(O)c12` (stereo not drawn), the TGI with MOLT-4 leukemia, in the assay with U251 CNS, in the assay with SF-295 CNS, with OVCAR-3 ovarian, in the assay with SNB-75 CNS and in the assay with UO-31 renal was over 100 µM throughout. Further, the TGI with 786-0 renal, with MDA-MB-231 breast, in the assay with SNB-19 CNS, in the assay with HCT-116 colon, in the assay on MDA-MB-435 and with SR leukemia was over 100 µM throughout. Further, the TGI in the assay with SW-620 colon, in the assay on PC-3 prostate, in the assay with K-562 leukemia and with HT29 colon was over 100 µM in each case.
With `O=C(O)c1cc(O)c2c(c1)Cc1cccc(O)c1C2=O`, the TGI with MOLT-4 leukemia worked out at 56.5 µM; in the assay on U251 CNS, 37.3 µM; with SF-295 CNS it was 50.5 µM; in the assay on OVCAR-3 ovarian, 36.9 µM; in the assay on SNB-75 CNS, 30.6 µM; in the assay on UO-31 renal, 34.2 µM. Moreover, the TGI is 92.2 µM with 786-0 renal; 52.4 µM with MDA-MB-231 breast; 95.1 µM in the assay on SNB-19 CNS; 67.1 µM with HCT-116 colon; over 100 µM in the assay with MDA-MB-435; 66.8 µM in the assay with SR leukemia. The TGI with SW-620 colon, in the assay with PC-3 prostate, with K-562 leukemia and with HT29 colon was over 100 µM each time.
With `COc1ccc2c(c1)CCCN1CCc3cc(OC)c(OC)cc3C21` (stereo not drawn), the TGI in the assay on MOLT-4 leukemia, in the assay with U251 CNS, with SF-295 CNS, in the assay with OVCAR-3 ovarian, with SNB-75 CNS and in the assay on UO-31 renal was over 100 µM each time. Besides, the TGI in the assay with 786-0 renal, with MDA-MB-231 breast, in the assay with SNB-19 CNS, in the assay with HCT-116 colon, in the assay on CAKI-1 renal and in the assay on MDA-MB-435 was over 100 µM in each case. In addition, the TGI in the assay with SR leukemia, with SW-620 colon, in the assay with PC-3 prostate, with K-562 leukemia and in the assay on HT29 colon was over 100 µM throughout.

For the origin of these results see PubChem BioAssay (NCI).
